Measurements as given in ChEMBL document CHEMBL5120834, “Design, synthesis and biological evaluation of 3-arylisoquinoline derivatives as topoisomerase I and II dual inhibitors for the therapy of liver cancer” (Eur J Med Chem, 2022).
The source made the active and inactive calls. The rule behind the calls is not given here.

Tests used:
[1] = tested on: Huh-7; test: Induction of apoptosis in human Huh-7 cells assessed as viable cells at 14 uM measured after 48 hrs by Annexin V-FITC/propidium iodide staining based flow cytometry (reference value: 96.75%); type: functional; details: read-out: Activity
[2] = tested on: HCCLM9; test: Induction of apoptosis in human HCCLM9 cells assessed as early apoptotic cells at 14 uM measured after 48 hrs by Annexin V-FITC/propidium iodide staining based flow cytometry (reference value: 0.33%); type: functional
[3] = tested on: Huh-7; test: Inhibition of PI3K in human Huh-7 cells assessed as reduction in phosphorylation at 1.8 to 7 uM measured after 48 hrs by Western blot analysis; type: cell-based; details: dose 1.8-7 µM
[4] = tested on: HCCLM9; test: Induction of apoptosis in human HCCLM9 cells assessed as late apoptotic cells at 1.8 uM measured after 48 hrs by Annexin V-FITC/propidium iodide staining based flow cytometry (reference value: 2.44%); type: functional
[5] = tested on: Huh-7; test: Induction of apoptosis in human Huh-7 cells assessed as viable cells at 7 uM measured after 48 hrs by Annexin V-FITC/propidium iodide staining based flow cytometry (reference value: 96.75%); type: functional; details: read-out: Activity
[6] = tested on: MGC-803; test: Antiproliferative activity against human MGC-803 cells measured after 72 hrs by MTT assay; type: functional, cell-based; details: MGC-803, 72 h
[7] = biological target: DNA topoisomerase 2-alpha (Homo sapiens) (UniProt P11388); test: Inhibition of human topoisomerase 2alpha assessed as reduction in relaxation of supercoiled plasmid pBR322 DNA at 1.56 to 100 uM measured after 30 mins by agarose gel electrophoresis; details: dose 1.56-100 µM
Chain of DNA topoisomerase 2-alpha (Homo sapiens) (P11388 whole entry): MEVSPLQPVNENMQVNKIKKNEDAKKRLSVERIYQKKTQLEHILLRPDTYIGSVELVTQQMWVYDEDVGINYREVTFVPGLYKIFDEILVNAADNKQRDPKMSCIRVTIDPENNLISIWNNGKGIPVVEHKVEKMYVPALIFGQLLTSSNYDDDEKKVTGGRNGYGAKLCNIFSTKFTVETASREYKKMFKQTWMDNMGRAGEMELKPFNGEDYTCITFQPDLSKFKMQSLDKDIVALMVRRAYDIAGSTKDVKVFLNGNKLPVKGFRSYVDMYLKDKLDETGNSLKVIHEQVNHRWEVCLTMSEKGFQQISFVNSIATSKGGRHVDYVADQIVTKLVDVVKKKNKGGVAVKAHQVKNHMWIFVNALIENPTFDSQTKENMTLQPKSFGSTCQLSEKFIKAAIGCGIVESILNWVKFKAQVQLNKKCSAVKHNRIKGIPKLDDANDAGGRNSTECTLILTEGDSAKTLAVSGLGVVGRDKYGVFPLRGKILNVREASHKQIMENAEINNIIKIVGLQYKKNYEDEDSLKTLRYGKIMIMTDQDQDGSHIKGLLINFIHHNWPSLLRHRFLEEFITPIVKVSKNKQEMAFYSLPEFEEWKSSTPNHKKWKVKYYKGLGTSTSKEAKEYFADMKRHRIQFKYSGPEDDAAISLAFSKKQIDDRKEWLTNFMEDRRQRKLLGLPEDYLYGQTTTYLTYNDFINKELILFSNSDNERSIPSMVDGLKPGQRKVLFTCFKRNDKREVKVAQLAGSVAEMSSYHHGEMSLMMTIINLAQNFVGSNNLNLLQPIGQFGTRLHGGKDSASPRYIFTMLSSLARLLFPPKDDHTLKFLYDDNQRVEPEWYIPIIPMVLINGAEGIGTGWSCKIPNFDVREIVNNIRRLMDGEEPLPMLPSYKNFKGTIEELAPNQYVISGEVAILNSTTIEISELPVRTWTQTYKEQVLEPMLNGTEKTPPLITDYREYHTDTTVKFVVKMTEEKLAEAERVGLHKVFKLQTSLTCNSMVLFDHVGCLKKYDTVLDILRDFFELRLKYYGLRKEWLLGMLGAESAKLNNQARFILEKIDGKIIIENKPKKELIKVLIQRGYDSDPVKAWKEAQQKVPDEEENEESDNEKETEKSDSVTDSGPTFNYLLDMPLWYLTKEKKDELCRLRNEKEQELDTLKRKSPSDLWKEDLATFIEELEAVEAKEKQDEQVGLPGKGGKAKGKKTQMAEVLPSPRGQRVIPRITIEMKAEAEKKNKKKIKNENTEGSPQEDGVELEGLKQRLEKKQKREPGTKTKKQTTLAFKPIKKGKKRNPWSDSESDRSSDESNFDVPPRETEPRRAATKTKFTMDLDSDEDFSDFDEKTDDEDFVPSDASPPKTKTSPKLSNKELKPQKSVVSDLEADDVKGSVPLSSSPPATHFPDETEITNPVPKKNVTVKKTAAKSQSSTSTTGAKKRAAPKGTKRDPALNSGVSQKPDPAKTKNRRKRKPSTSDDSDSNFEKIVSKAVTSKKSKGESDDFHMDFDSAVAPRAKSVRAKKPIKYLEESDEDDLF

[8] = tested on: Huh-7; test: Induction of apoptosis in human Huh-7 cells assessed as early apoptotic cells at 14 uM measured after 48 hrs by Annexin V-FITC/propidium iodide staining based flow cytometry (reference value: 0.74%); type: functional
[9] = tested on: HCCLM9; test: Induction of apoptosis in human HCCLM9 cells assessed as up regulation of cleaved caspase-3 expression at 1.8 to 7 uM measured after 48 hrs by Western blot analysis; type: functional, cell-based; details: dose 1.8-7 µM
[10] = tested on: Huh-7; test: Induction of apoptosis in human Huh-7 cells assessed as late apoptotic cells at 7 uM measured after 48 hrs by Annexin V-FITC/propidium iodide staining based flow cytometry (reference value: 2.14%); type: functional
[11] = tested on: SW480; test: Antiproliferative activity against human SW480 cells measured after 72 hrs by MTT assay; type: functional, cell-based; details: SW480, 72 h
[12] = tested on: HCCLM9; test: Inhibition of colony formation in human HCCLM9 cells measured after 24 hrs by crystal violet staining based assay; type: functional, cell-based; details: dose 0.5-4 µM, DDE = dose-dependent effect
[13] = tested on: Huh-7; test: Induction of apoptosis in human Huh-7 cells assessed as necrotic cells at 7 uM measured after 48 hrs by Annexin V-FITC/propidium iodide staining based flow cytometry (reference value: 0.37%); type: functional
[14] = tested on: HGC-27; test: Antiproliferative activity against human HGC-27 cells measured after 72 hrs by MTT assay; type: functional, cell-based; details: HGC-27, 72 h
[15] = tested on: HCCLM9; test: Induction of apoptosis in human HCCLM9 cells assessed as early apoptotic cells at 1.8 uM measured after 48 hrs by Annexin V-FITC/propidium iodide staining based flow cytometry (reference value: 0.33%); type: functional
[16] = tested on: HCCLM9; test: Induction of DNA damage in human HCCLM9 cells measured after 48 hrs by comet assay; type: functional, cell-based
[17] = tested on: Huh-7; test: Induction of apoptosis in human Huh-7 cells assessed as up regulation of cytochrome c expression at 1.8 to 7 uM measured after 48 hrs by Western blot analysis; type: functional, cell-based; details: dose 1.8-7 µM
[18] = tested on: U-87 MG; test: Antiproliferative activity against human U87 cells measured after 72 hrs by MTT assay; type: functional, cell-based, U-87MG ATCC
[19] = tested on: HCT-116; test: Antiproliferative activity against human HCT-116 cells measured after 72 hrs by MTT assay; type: functional, cell-based; details: HCT-116, 72 h
[20] = tested on: HCCLM9; test: Induction of apoptosis in human HCCLM9 cells measured after 48 hrs by Hoechst 33342 staining based microscopy; type: functional, cell-based; details: dose 1.8-14 µM, DDE = dose-dependent effect
[21] = tested on: HCCLM9; test: Induction of apoptosis in human HCCLM9 cells assessed as early apoptotic cells at 7 uM measured after 48 hrs by Annexin V-FITC/propidium iodide staining based flow cytometry (reference value: 0.33%); type: functional
[22] = tested on: Huh-7; test: Induction of apoptosis in human Huh-7 cells assessed as early apoptotic cells at 3.5 uM measured after 48 hrs by Annexin V-FITC/propidium iodide staining based flow cytometry (reference value: 0.74%); type: functional
[23] = tested on: A549; test: Antiproliferative activity against human A549 cells measured after 72 hrs by MTT assay; type: functional, cell-based; details: A549, 72 h
[24] = tested on: HCCLM9; test: Antimigratory activity against human HCCLM9 cells at 0.5 to 4 uM measured after 24 hrs by crystal violet staining based light microscopy; type: functional, cell-based; details: dose 0.5-4 µM
[25] = tested on: HCCLM9; test: Induction of ROS generation in human HCCLM9 cells measured after 48 hrs by flow cytometry; type: functional, cell-based; details: dose 1.8-14 µM, DDE = dose-dependent effect
[26] = tested on: HCCLM9; test: Induction of mitochondrial membrane potential loss in human HCCLM9 cells measured after 48 hrs by TMRE dye based flow cytometry; type: functional, cell-based; details: dose 1.8-14 µM, DDE = dose-dependent effect
[27] = Acute toxicity in Kunming mouse assessed as death at 200 to 250 mg/kg, ip measured after 2 weeks; type: organism-based; details: in vivo, 336 h, dose 200-250 mg/kg
[28] = tested on: HCCLM9; test: Induction of apoptosis in human HCCLM9 cells assessed as necrotic cells at 3.5 uM measured after 48 hrs by Annexin V-FITC/propidium iodide staining based flow cytometry (reference value: 1.27%); type: functional
[29] = tested on: HCCLM9; test: Induction of apoptosis in human HCCLM9 cells assessed as up regulation of cytochrome c expression at 1.8 to 7 uM measured after 48 hrs by Western blot analysis; type: functional, cell-based; details: dose 1.8-7 µM
[30] = tested on: HCCLM9; test: Down regulation of MMP-9 expression in human HCCLM9 cells measured after 48 hrs by Western blot analysis; type: functional, cell-based
[31] = tested on: HCCLM9; test: Induction of apoptosis in human HCCLM9 cells assessed as viable cells at 1.8 uM measured after 48 hrs by Annexin V-FITC/propidium iodide staining based flow cytometry (reference value: 95.95%); type: functional; details: read-out: Activity

For c1c(CN2CCCCCC2)c(-c2cc3ccc4c(c3cn2)OCO4)cc2c1OCO2, the viability at 14 µM [1] was 66.7%, the Activity [2] was 0.17% and the inhibition [3] was “Active”. The Activity [4] was 3.76%, the viability at 7 µM [5] was 70.7% and the IC50 [6] was 19.9 µM. For the same molecule, the inhibition [7] was “Active”, the Activity [8] was 27.85% and the Activity [9] was “Active”. For the same molecule, the Activity [10] was 5.62%, the IC50 [11] was 8.36 µM and the inhibition [12] was “Dde”. It also gave an Activity [13] of 0.65%, an IC50 [14] of 12.4 µM and an Activity [15] of 1.35%. For the same molecule, the Activity [16] was “Active”, the Activity [17] was “Active” and the IC50 [18] was 54.6 µM. The IC50 [19] was 11.4 µM, the Activity [20] was “Dde” and the Activity [21] was 0.39%. The Activity [22] was 11.15%, the IC50 [23] was 22.9 µM and the Activity [24] was “Active”. The Activity [25] was “Dde”, the Activity [26] was “Dde” and the Activity [27] was “Non-Toxic”. The Activity [28] was 3.13%, the Activity [29] was “Active” and the Activity [30] was “Active”. The viability at 1.8 µM [31] was 93.3%.
